Assays:
[1] = biological target: T1, pseudo-kinase domain (JH2, amino-acids 536-812) of human V617F mutant JAK2 (Homo sapiens, UniProt O60674, F794H/V617F/W659A/W777A); test: JAK2 LanthaScreen JH2-V617F Binding Assay; details: JAK2 JH2-V617F 0.26 nM, 50 nM tracer, 1 hour at 25° C.; read-out: JH2 BIND V617F
T1 construct: pseudo-kinase domain (JH2, amino-acids 536-812 with 3 surface mutations W659A, W777A, F794H); His (C); purchased BPS Bioscience 79498; host or cells: baculovirus expression system
T1 sequence (O60674 536-812 V617F/W659A/W777A/F794H): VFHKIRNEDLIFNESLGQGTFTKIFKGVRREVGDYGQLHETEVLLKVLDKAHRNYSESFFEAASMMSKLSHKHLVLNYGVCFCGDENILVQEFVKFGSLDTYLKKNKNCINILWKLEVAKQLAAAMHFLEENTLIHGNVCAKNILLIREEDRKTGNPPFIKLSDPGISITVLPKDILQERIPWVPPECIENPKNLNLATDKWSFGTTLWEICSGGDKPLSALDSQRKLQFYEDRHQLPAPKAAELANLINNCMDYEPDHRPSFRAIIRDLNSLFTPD
Outline: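 IC50 values came from four-parameter dose-response fits of LanthaScreen signal, read after compounds sat 1 hour at 25° C with 0.26 nM baculovirus-expressed biotinylated protein, 50 nM fluorescent tracer and 0.25 nM streptavidin-Tb cryptate. Non-specific binding was set with 2 mM ATP.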

[2] = biological target: catalytic domain (JH1, amino acids 808-1132) of human JAK2 (Homo sapiens, UniProt O60674); test: JAK2 HTRF Enzyme Activity Assay; format: biochemical; details: ATP 30 µM, 60 minutes at 25° C.; read-out: V617F ENZ 30 UM
Chain of catalytic domain (JH1, amino acids 808-1132) of human JAK2 (O60674 808-1132 limits assumed): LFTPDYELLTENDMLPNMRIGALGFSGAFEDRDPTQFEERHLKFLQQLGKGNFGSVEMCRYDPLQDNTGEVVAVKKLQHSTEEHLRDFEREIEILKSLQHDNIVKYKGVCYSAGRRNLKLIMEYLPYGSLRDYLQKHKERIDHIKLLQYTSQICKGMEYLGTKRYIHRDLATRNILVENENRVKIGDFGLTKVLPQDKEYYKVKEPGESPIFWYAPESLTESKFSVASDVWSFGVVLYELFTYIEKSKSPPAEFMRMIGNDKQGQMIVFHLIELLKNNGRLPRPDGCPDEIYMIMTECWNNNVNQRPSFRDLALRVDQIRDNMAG

[3] = biological target: T2, pseudo-kinase domain (JH2, amino-acids 536-812) of human Wild Type JAK2 (Homo sapiens, UniProt O60674, F794H/W659A/W777A); test: JAK2 LanthaScreen JH2-WT Binding Assay; details: JAK2 JH2-WT 0.145 nM, 50 nM tracer, 1 hour at 25° C.; read-out: JH2 BIND WT
T2 construct: pseudo-kinase domain (JH2, amino-acids 536-812 with 3 surface mutations W659A, W777A, F794H); His (C); purchased BPS Bioscience 79463; host or cells: baculovirus expression system
T2 sequence (O60674 536-812 W659A/W777A/F794H): as the sequence (O60674 536-812 V617F/W659A/W777A/F794H) above, with F82V counted along it
Outline: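 Binding was measured by TR-FRET between streptavidin-Tb (0.25 nM) on biotinylated JH2 (0.145 nM) and 50 nM fluorescent tracer, with compound dose series, 1 h at 25° C; IC50 fitted.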

[4] = biological target: T3, catalytic domain (JH1, amino acids 826-1132) of human JAK2 (Homo sapiens, UniProt O60674); test: JAK2 LanthaScreen JH1 Binding Assay; details: JAK2 JH1 1.5 nM, 50 nM tracer, 2 hours at 25° C.; read-out: JH1 BIND
T3 construct: catalytic domain (JH1, amino acids 826-1132) of human JAK2; FLAG (N); biotin (biotinylated); purchased Carna Biosciences 08-445-20N; host or cells: baculovirus expression system
T3 sequence (O60674 826-1132): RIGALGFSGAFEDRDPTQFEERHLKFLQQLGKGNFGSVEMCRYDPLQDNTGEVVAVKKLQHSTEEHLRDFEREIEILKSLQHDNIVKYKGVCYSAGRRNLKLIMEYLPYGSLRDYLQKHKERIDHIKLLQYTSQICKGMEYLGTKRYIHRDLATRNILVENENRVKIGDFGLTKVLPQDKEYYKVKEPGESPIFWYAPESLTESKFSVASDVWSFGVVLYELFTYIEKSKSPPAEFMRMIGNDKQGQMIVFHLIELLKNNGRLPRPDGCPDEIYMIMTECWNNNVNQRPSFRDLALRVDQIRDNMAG
Outline: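 FLAG-tagged, biotinylated JAK2 JH1 (aa 826-1132, baculovirus-expressed; 1.5 nM) incubated 2 h at 25° C with compounds, 50 nM fluorescent tracer and 0.5 nM Streptavidin-Tb in Tris pH 7.5 buffer with MgCl2, Brij-35, BSA, EGTA, glycerol, DTT. Nonspecific binding defined with 2 mM ATP; TR-FRET IC50 from four-parameter fit.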

Row | Compound | IC50 [1] | IC50 [2] | IC50 [3] | IC50 [4]
1 | [2H]C([2H])([2H])n1c(=O)n([C@@H]2CC[C@@H](NC(=O)OC)C2)c2cc(Nc3cc(C(C)(C)O)cc(-c4ncc(C(C)(C)O)s4)n3)ncc21 [Example 144, Methyl ((1R,3R)-3-(6-((4-(2-hydroxypropan-2-yl)-6-(5-(2-hydroxypropan-2-yl)thiazol-2-yl)pyridin-2-yl)amino)-3-(methyl-d3)-2-oxo-2,3-dihydro-1H-imidazo[4,5-c)pyridin-1-yl)cyclopentyl)carbamate] | ≤ 0.01 µM | > 1 µM | ≤ 0.01 µM | > 1 µM
2 | [2H]C([2H])([2H])n1c(=O)n([C@@H]2CC[C@@H](NC(=O)OC)C2)c2cc(Nc3cc(C(C)(C)O)cc(-c4ncc(C(O)(C(F)(F)F)C(F)(F)F)s4)n3)ncc21 [Example 145, Methyl ((1R,3R)-3-(6-((6-(5-(1,1,1,3,3,3-hexafluoro-2-hydroxypropan-2-yl)thiazol-2-yl)-4-(2-hydroxypropan-2-yl)pyridin-2-yl)amino)-3-(methyl-d3)-2-oxo-2,3-dihydro-1H-imidazo[4,5-c]pyridin-1-yl)cyclopentyl)carbamate] | ≤ 0.01 µM | > 1 µM | ≤ 0.01 µM | > 1 µM
3 | [2H]C([2H])([2H])n1c(=O)n([C@@H]2CC[C@@H](NC(=O)OC)C2)c2cc(Nc3cc(-c4cnccc4C(F)(F)F)cc(-c4ccc(C(F)F)s4)n3)ncc21 [Example 154, Methyl ((1R,3R)-3-(6-((6′-(5-(difluoromethyl)thiophen-2-yl)-4-(trifluoromethyl)-[3,4′-bipyridin]-2′-yl)amino)-3-(methyl-d3)-2-oxo-2,3-dihydro-1H-imidazo[4,5-c]pyridin-1-yl)cyclopentyl)carbamate] | ≤ 0.01 µM | > 1 µM | ≤ 0.01 µM | > 1 µM
4 | [2H]C([2H])([2H])n1c(=O)n([C@]2([2H])CC[C@@H](NC(=O)OC)C2)c2cc(Nc3cc(C(C)(C)O)cc(-c4ncc(C(F)(F)F)s4)n3)ncc21 [Example 156, Methyl ((1R,3R)-3-(6-((4-(2-hydroxypropan-2-yl)-6-(5-(trifluoromethyl)thiazol-2-yl)pyridin-2-yl)amino)-3-(methyl-d3)-2-oxo-2,3-dihydro-1H-imidazo[4,5-c]pyridin-1-yl)cyclopentyl-3-d)carbamate] | ≤ 0.01 µM | > 1 µM | ≤ 0.01 µM | > 1 µM
5 | [2H]C([2H])([2H])n1c(=O)n([C@@H]2CC[C@@H](NC(=O)OC)C2)c2cc(Nc3cc(C4CCN(C)CC4)cc(-c4ncc(C(F)(F)F)s4)n3)ncc21 [Example 157, Methyl ((1R,3R)-3-(3-(methyl-d3)-6-((4-(1-methylpiperidin-4-yl)-6-(5-(trifluoromethyl)thiazol-2-yl)pyridin-2-yl)amino)-2-oxo-2,3-dihydro-1H-imidazo[4,5-c]pyridin-1-yl)cyclopentyl)carbamate] | ≤ 0.01 µM | > 1 µM | ≤ 0.01 µM | > 1 µM
